Source: patent US20240245677A1, “SELECTED COMPOUNDS FOR TARGETED DEGRADATION OF BRD9” (C4 THERAPEUTICS, INC., priority 2021, published 2024)
Read-outs that look alike come from different tables or passages of the source.

Biological target: T1, BRD9 (Homo sapiens, UniProt Q9H8M2)
T1 sequence (Q9H8M2 1-597): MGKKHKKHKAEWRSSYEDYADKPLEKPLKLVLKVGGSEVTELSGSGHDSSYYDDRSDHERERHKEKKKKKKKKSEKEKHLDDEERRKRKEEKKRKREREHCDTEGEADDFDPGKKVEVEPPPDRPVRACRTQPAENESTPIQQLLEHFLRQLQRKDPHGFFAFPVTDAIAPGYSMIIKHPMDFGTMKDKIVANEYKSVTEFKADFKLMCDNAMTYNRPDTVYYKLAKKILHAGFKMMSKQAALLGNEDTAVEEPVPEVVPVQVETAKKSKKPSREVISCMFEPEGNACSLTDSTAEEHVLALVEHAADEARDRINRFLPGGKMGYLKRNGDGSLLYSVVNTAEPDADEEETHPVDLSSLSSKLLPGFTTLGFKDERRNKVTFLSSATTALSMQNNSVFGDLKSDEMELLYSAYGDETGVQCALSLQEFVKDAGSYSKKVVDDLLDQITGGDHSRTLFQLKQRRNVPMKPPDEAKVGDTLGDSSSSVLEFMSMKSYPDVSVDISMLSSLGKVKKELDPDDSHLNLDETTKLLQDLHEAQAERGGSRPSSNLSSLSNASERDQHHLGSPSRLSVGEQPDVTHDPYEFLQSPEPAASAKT
Assay: BRD9 degradation in Yamato-SS cells (endogenous), Western blot
Format: cell-based
Details: percent BRD9 detected, read-out: Emax(%)
Procedure: The purpose of this study was to evaluate the detection of BRD9 in a human cell line and susceptibility to degradation by Compound 1.
Previously frozen YAMATO-SS human cells (provided by the RIKEN BRC through the National BioResource Project of the MEXT/AMED, Japan (cat #RCB3577)) were thawed. Upon thawing, the cells were transferred to a 15 mL conical tube containing 10 mL of warm RPMI-1640 medium (Catalog No. C2400500BT, Gibco, Grand Island, NY, USA) supplemented with 10% FBS (Catalog No. SV30087.03, Cytiva, Marlborough, MA, USA) and spun down for 5 minutes at 1200 rpm. An aliquot was diluted 2× with Trypan Blue solution 0.4% (Catalog No. 15250061, ThermoSischer Scientific, Waltham, MA, USA) and cell count was determined. […]
Samples were boiled for 5 minutes and placed on ice for 30 minutes. […] Supernatants were transferred to a new 2.0 mL microcentrifuge tube and total protein concentrations were measured using Pierce™ BCA Protein Assay Kit (Catalog No. 23225, ThermoFischer Scientific, Waltham, MA USA).
After total protein quantification, all samples were diluted to a fixed μg/μL of protein in 6× loading buffer (Catalog No. BP-111R, Boston Bioproducts, Inc., Milford, MA, USA) for a final concentration of 40 μg of total protein in 1× loading buffer per lane. […]

COc1cc(-c2cn(C)c(=O)c(C)c2C)cc(OC)c1CN1CC[C@H](N2CCN(c3ccc(N[C@H]4CCC(=O)NC4=O)cc3F)CC2)C(F)(F)C1 [Compound 1, (S)-3-((4-(4-((S)-1-(2,6-dimethoxy-4-(1,4,5-trimethyl-6-oxo-1,6-dihydropyridin-3-yl)benzyl)-3,3-difluoropiperidin-4-yl)piperazin-1-yl)-3-fluorophenyl)amino)-piperidine-2,6-dione] showed a % BRD9 remaining (4 hr) of 1.2% and a % BRD9 remaining (24 hr) of 3.4%.
